Laboratory results from PubChem BioAssay AID330 (DTP/NCI, 2004).
Several values for one entry are separate records, joined by “and”; a condition that tells them apart may be missing. Equal entries are not always repeated. Inconclusive results and toxic doses are left out. Rule for the calls: active = survival T/C of 150% or more; inactive = T/C below 125% in these data.

System: P388 leukemia ip, CD2F1 mice, survival T/C
Assay: NCI In Vivo Anticancer Drug Screen. Data for tumor model P388 Leukemia (intraperitoneal) in CD2F1 (CDF1) mice
Conditions: endpoint: median survival time, higher = longer survival
Summary of the method: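 Mice carrying the transplanted tumor received test compound or vehicle. Survival was recorded in each group, and the value is the treated-group measurement divided by that of the vehicle-treated control group.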

[1] = dose: 50.0 mg/kg/injection, schedule: Q01DX009 (ip), vehicle: saline
[2] = dose: 50.0 mg/kg/injection, schedule: Q01DX009 (ip), vehicle: saline with Tween-80
[3] = dose: 100.0 mg/kg/injection, schedule: Q01DX009 (ip), vehicle: saline with Tween-80
[4] = dose: 100.0 mg/kg/injection, schedule: Q04DX002 (ip), vehicle: saline with Tween-80
[5] = dose: 200.0 mg/kg/injection, schedule: Q04DX002 (ip), vehicle: saline with Tween-80
[6] = dose: 400.0 mg/kg/injection, schedule: Q04DX002 (ip), vehicle: saline with Tween-80
[7] = dose: 200.0 mg/kg/injection, schedule: Q01DX009 (ip), vehicle: saline with Tween-80
[8] = dose: 60.0 mg/kg/injection, schedule: Q01DX005 (ip), vehicle: saline with Tween-80
[9] = dose: 120.0 mg/kg/injection, schedule: Q01DX005 (ip), vehicle: saline with Tween-80
[10] = dose: 240.0 mg/kg/injection, schedule: Q01DX005 (ip), vehicle: saline with Tween-80
[11] = dose: 50.0 mg/kg/injection, schedule: Q01DX005 (ip), vehicle: saline
[12] = dose: 100.0 mg/kg/injection, schedule: Q01DX005 (ip), vehicle: saline
[13] = dose: 200.0 mg/kg/injection, schedule: Q01DX005 (ip), vehicle: saline
[14] = dose: 25.0 mg/kg/injection, schedule: Q01DX009 (ip), vehicle: Klucel (hydroxypropylcellulose) (HPC)
[15] = dose: 50.0 mg/kg/injection, schedule: Q01DX009 (ip), vehicle: Klucel (hydroxypropylcellulose) (HPC)
[16] = dose: 100.0 mg/kg/injection, schedule: Q01DX009 (ip), vehicle: Klucel (hydroxypropylcellulose) (HPC)
[17] = dose: 200.0 mg/kg/injection, schedule: Q01DX009 (ip), vehicle: Klucel (hydroxypropylcellulose) (HPC)

Measured: T/C

O=C(NC(=S)c1ccco1)NS(=O)(=O)c1ccc(Cl)cc1
inactive: dose: 25.0 mg/kg/injection, schedule: Q01DX001 (ip), vehicle: saline with Tween-80 100 % of control | dose: 50.0 mg/kg/injection, schedule: Q01DX001 (ip), vehicle: saline with Tween-80 95 % of control | dose: 100.0 mg/kg/injection, schedule: Q01DX001 (ip), vehicle: saline with Tween-80 96 % of control

O=C(O)CN(CCN(CC(=O)O)CC(=O)O)CC(=O)O.[Cd+2]
inactive: dose: 1.56 mg/kg/injection, schedule: Q01DX009 (ip), vehicle: saline 97 % of control | dose: 3.12 mg/kg/injection, schedule: Q01DX009 (ip), vehicle: saline 91 % of control | dose: 6.25 mg/kg/injection, schedule: Q01DX009 (ip), vehicle: saline 91 % of control and 94 % of control | dose: 12.5 mg/kg/injection, schedule: Q01DX009 (ip), vehicle: saline 92 % of control and 95 % of control | dose: 25.0 mg/kg/injection, schedule: Q01DX009 (ip), vehicle: saline 92 % of control and 97 % of control | [1] 88 % of control

CCOC(=O)C1=C(c2ccccc2)SC(c2ccccc2)N(C(C)C)C1=O (stereo unspecified)
inactive: dose: 25.0 mg/kg/injection, schedule: Q01DX009 (ip), vehicle: saline with Tween-80 106 % of control | [2] 107 % of control | [3] 100 % of control

Fc1cccc(-c2nn[nH]n2)c1
inactive: [4] 102 % of control | [5] 107 % of control | [6] 116 % of control

Cc1cccc(-c2nc(N)nc(N)n2)c1
inactive: [2] 92 % of control | [3] 95 % of control | [7] 104 % of control

C=C1CCOC2(C(O)C(C)(O)CO)NC(=O)C1(O)NC2=O (stereo unspecified)
inactive: [1] 108 % of control | dose: 100.0 mg/kg/injection, schedule: Q01DX009 (ip), vehicle: saline 118 % of control | dose: 200.0 mg/kg/injection, schedule: Q01DX009 (ip), vehicle: saline 103 % of control | dose: 400.0 mg/kg/injection, schedule: Q01DX009 (ip), vehicle: saline 108 % of control

Cn1c(=S)sc2nc3ccccc3n2c1=S
inactive: dose: 30.0 mg/kg/injection, schedule: Q01DX005 (ip), vehicle: saline with Tween-80 117 % of control | [8] 121 % of control | [9] 108 % of control

O=C(Nc1cccc2c(O)c(N=Nc3ccc(S(=O)(=O)Nc4nccs4)cc3)cc(N=Nc3ccc(S(=O)(=O)Nc4nccs4)cc3)c12)C(Cl)Cl
inactive: [2] 102 % of control | [3] 106 % of control | [7] 98 % of control

CN=C([O-])c1c(=O)o[nH][n+]1-c1ccccc1
inactive: [8] 95 % of control | [9] 98 % of control | [10] 94 % of control

NC(=O)c1n[nH][nH]c1=O
inactive: [11] 115 % of control | [12] 105 % of control | [13] 115 % of control

CN(C)C12CCCCCC1S(=O)(=O)C2 (stereo unspecified)
inactive: [2] 94 % of control | [3] 94 % of control

Nc1cccc2c1C(=O)c1cccc3snc-2c13
inactive: dose: 12.5 mg/kg/injection, schedule: Q01DX005 (ip), vehicle: Klucel (hydroxypropylcellulose) (HPC) 102 % of control | dose: 25.0 mg/kg/injection, schedule: Q01DX005 (ip), vehicle: Klucel (hydroxypropylcellulose) (HPC) 104 % of control | dose: 50.0 mg/kg/injection, schedule: Q01DX005 (ip), vehicle: Klucel (hydroxypropylcellulose) (HPC) 100 % of control and 97 % of control | dose: 100.0 mg/kg/injection, schedule: Q01DX005 (ip), vehicle: Klucel (hydroxypropylcellulose) (HPC) 87 % of control

CC(=O)NS(=O)(=O)c1ccc(N=Cc2c3ccccc3nc3cc(Cl)ccc23)cc1
inactive: [4] 101 % of control | [5] 93 % of control | [6] 101 % of control

CC/C(=C(\CC)c1ccc(OC)cc1)c1ccc(OC)cc1
inactive: [14] 107 % of control | [15] 105 % of control | [2] 102 % of control | [16] 106 % of control | [3] 98 % of control | [17] 97 % of control

CCCCN=C(c1ccc(O)cc1)c1ccc(OC)cc1O
inactive: [8] 108 % of control | [9] 92 % of control | [10] 99 % of control

CC(C)(Cc1ccccc1)C(=C=C=C=C(c1ccccc1)C(C)(C)Cc1ccccc1)c1ccccc1
inactive: [14] 101 % of control | [15] 99 % of control | [16] 92 % of control

COC(=O)C(N)C(C)O (stereo unspecified)
inactive: dose: 12.5 mg/kg/injection, schedule: Q01DX009 (ip), vehicle: water 97 % of control | dose: 25.0 mg/kg/injection, schedule: Q01DX009 (ip), vehicle: water 101 % of control | dose: 50.0 mg/kg/injection, schedule: Q01DX009 (ip), vehicle: water 89 % of control | dose: 100.0 mg/kg/injection, schedule: Q01DX009 (ip), vehicle: water 102 % of control | dose: 200.0 mg/kg/injection, schedule: Q01DX009 (ip), vehicle: water 102 % of control

N#CC(C#N)=CN(CCO)CCO
inactive: [11] 99 % of control | [12] 99 % of control | [13] 97 % of control

O=C1CSC(c2ccco2)N1c1nncs1 (stereo unspecified)
inactive: dose: 30.0 mg/kg/injection, schedule: Q01DX005 (ip), vehicle: Klucel (hydroxypropylcellulose) (HPC) 100 % of control | dose: 60.0 mg/kg/injection, schedule: Q01DX005 (ip), vehicle: Klucel (hydroxypropylcellulose) (HPC) 100 % of control | dose: 120.0 mg/kg/injection, schedule: Q01DX005 (ip), vehicle: Klucel (hydroxypropylcellulose) (HPC) 103 % of control | dose: 240.0 mg/kg/injection, schedule: Q01DX005 (ip), vehicle: Klucel (hydroxypropylcellulose) (HPC) 108 % of control

CC(=O)C(c1ccccc1)[N+](C)(C)C (stereo unspecified)
inactive: dose: 25.0 mg/kg/injection, schedule: Q04DX003 (ip), vehicle: other 100 % of control | dose: 50.0 mg/kg/injection, schedule: Q04DX003 (ip), vehicle: other 100 % of control | dose: 100.0 mg/kg/injection, schedule: Q04DX003 (ip), vehicle: other 98 % of control

Cc1c(S)cnc2ccccc12
inactive: dose: 50.0 mg/kg/injection, schedule: Q01DX005 (ip), vehicle: saline with Tween-80 99 % of control | dose: 100.0 mg/kg/injection, schedule: Q01DX005 (ip), vehicle: saline with Tween-80 93 % of control

O=C(/C=C\c1ccncc1)c1ccc([N+](=O)[O-])cc1
inactive: dose: 25.0 mg/kg/injection, schedule: Q01DX009 (ip), vehicle: other 103 % of control | dose: 50.0 mg/kg/injection, schedule: Q01DX009 (ip), vehicle: other 101 % of control | dose: 100.0 mg/kg/injection, schedule: Q01DX009 (ip), vehicle: other 96 % of control | dose: 200.0 mg/kg/injection, schedule: Q01DX009 (ip), vehicle: other 93 % of control | dose: 400.0 mg/kg/injection, schedule: Q01DX009 (ip), vehicle: other 92 % of control

CC(=O)NCCSC(NC(=O)c1ccccc1)C(=O)O (stereo unspecified)
inactive: [15] 90 % of control | [16] 101 % of control | [17] 98 % of control

Cc1noc(N)c1-n1c(C)ccc1C
inactive: dose: 100.0 mg/kg/injection, schedule: Q04DX003 (ip), vehicle: saline with Tween-80 95 % of control | dose: 200.0 mg/kg/injection, schedule: Q04DX003 (ip), vehicle: saline with Tween-80 100 % of control | dose: 400.0 mg/kg/injection, schedule: Q04DX003 (ip), vehicle: saline with Tween-80 100 % of control

CC1(C)C2(C(N)=O)C(=O)NC(=O)C12C(=O)O (stereo unspecified)
inactive: dose: 25.0 mg/kg/injection, schedule: Q04DX002 (ip), vehicle: saline with Tween-80 95 % of control | dose: 50.0 mg/kg/injection, schedule: Q04DX002 (ip), vehicle: saline with Tween-80 104 % of control | [4] 103 % of control
